Experimental data from US4999374A, “Veterinary treatment” (priority 1987, dated 1991).
Values joined by “and” are separate entries in the source; they are usually repeats but may differ in a detail not shown here. Equal entries are not always repeated. Where two headings read alike, the source gives them in different places.

Key:
T. hyodysenteriae [1] = test: MIC of M139603 against thirteen T. hyodysenteriae isolates vs salinomycin and dimetridazole (Example 1, Table 1); format: cell-based, Treponema hyodysenteriae; conditions: Brachyspira hyodysenteriae
Description: The minimum inhibitory concentration of M139603 was tested in parallel with dimetridazole (May & Baker) and the growth-promoting polyether antibiotic salinomycin (Hoechst) against thirteen strains of T. hyodysenteriae.

T. hyodysenteriae [2] = test: Comparative efficacy of M139603 and salinomycin in experimentally infected mice (Example 3, Table 3); format: in vivo, mice (strain MF-1); conditions: for Mean (log10) viable treponemes per gram caecum & contents / Viable treponemes per gram caecum & contents: 5 days; for Mean (log10) viable treponemes per gram caecum & contents: group mean; for Viable treponemes per gram caecum & contents: individual mice
Text: (§1) The infection leads to varying degrees of caecitis, the lesions of which are apparent in animals killed on or about the sixth day post-infection. Caecal specimens examined by bacteriological culture techniques applicable for enumeration of organisms reveal the presence of high populations of T.hyodysenteriae. This disease-model was used in experiments to compare the efficacy of M139603 with that of salinomycin, lasalocid and monensin in suppressing the infection.
(§2) In this study, the efficacy of M139603 was tested at 25 ppm feed and that of monensin (Eli Lilly) at 50 or 100 ppm. Groups of infected mice, five per group, were offered the drugs in the feed on five continuous days before killing. Caecal materials were subjected to bacteriological examination to enumerate the populations of viable treponemes per gram of material. […] The group mean in respect of the unmedicated groups was 7.9 cfu/g.
In this study, the efficacy of M139603 was tested at 30 ppm and that of salinomycin at 30, 40 or 60 ppm feed. The mouse-groups and test-procedureswere simi-ar to those applied under Example 2 above.

T. hyodysenteriae [3] = test: Comparative efficacy of M139603 and lasalocid in experimentally infected mice (Example 4, Table 4); format: in vivo, mice (strain MF-1); conditions: for Mean (log10) viable treponemes per gram caecal contents / Viable treponemes per gram caecal contents: 5 days; for Mean (log10) viable treponemes per gram caecal contents: group mean (table); for Viable treponemes per gram caecal contents: individual mice
Text: as §1, §2
In this study, the efficacy of M139603 was tested at 20 ppm feed and that of lasalocid (Hoffman la Roche) at 20, 40 and 80 ppm. The test procedures were similar to those above except for the size of the inoculum of T.hyodysenteriae (1.2×10^7 cfu) used in infecting each mouse. […] The mean (log10) counts of viable treponemes found in the caecal contents of the various groups were: 2.5 cfu/g caecum (139603 at 20 ppm), 7.35 cfu (lasalocid at 20 ppm), 7.45 cfu (lasalocid at 40 ppm), 3.81 cfu (lasalocid at 80 ppm) and 8.50 cfu (unmedicated control).

T. hyodysenteriae [4] = test: Comparative efficacy of M139603 and monensin in experimentally infected mice (Example 2, Table 2); format: in vivo, mice (strain MF-1); conditions: for Mean (log10) viable treponemes per gram caecum & contents / Viable treponemes per gram caecum & contents: 5 days; for Mean (log10) viable treponemes per gram caecum & contents: group mean; for Viable treponemes per gram caecum & contents: individual mice
Text: as §1, §2

**Q.** How did the MIC (T. hyodysenteriae [1]; isolate B78) turn out when `CC[C@@H](C(=O)[C@@H](C)[C@@H](O)[C@H](C)[C@@H]1O[C@@H]([C@@H](CC)C(=O)O)CC[C@@H]1C)[C@H]1O[C@]2(C=C[C@@H](O)[C@]3(CC[C@@](C)([C@H]4CC[C@](O)(CC)[C@H](C)O4)O3)O2)[C@H](C)C[C@@H]1C` [Salinomycin, salinomycin] was run?
**A.** 1 µg/mL

**Q.** What about the MIC (T. hyodysenteriae [1]; isolate S82/6) of the same compound?
**A.** 0.75 µg/mL

**Q.** And the MIC (T. hyodysenteriae [1]; isolate S82/7)?
**A.** 0.75 µg/mL

**Q.** And the MIC (T. hyodysenteriae [1]; isolate S83/1)?
**A.** 0.75 µg/mL

**Q.** What about the MIC (T. hyodysenteriae [1]; isolate S83/2) of the same compound?
**A.** 1 µg/mL

**Q.** What about the MIC (T. hyodysenteriae [1]; isolate S83/5) of the same compound?
**A.** < 0.1 µg/mL

**Q.** And the MIC (T. hyodysenteriae [1]; isolate S85/1)?
**A.** 0.75 µg/mL

**Q.** And the MIC (T. hyodysenteriae [1]; isolate S85/2)?
**A.** 1 µg/mL

**Q.** And the MIC (T. hyodysenteriae [1]; isolate S85/3)?
**A.** 0.75 µg/mL

**Q.** And the MIC (T. hyodysenteriae [1]; isolate S85/8)?
**A.** 0.75 µg/mL

**Q.** And the MIC (T. hyodysenteriae [1]; isolate S85/9)?
**A.** 0.5 µg/mL

**Q.** What about the MIC (T. hyodysenteriae [1]; isolate S86/1) of the same compound?
**A.** < 0.1 µg/mL

**Q.** What about the MIC (T. hyodysenteriae [1]; isolate S86/2) of the same compound?
**A.** 0.75 µg/mL

**Q.** What about the MIC (T. hyodysenteriae [1]; read-out: Mean MIC, mean of 13 strains (table)) of the same compound?
**A.** 0.68 µg/mL

**Q.** What about the Suppression of infection (T. hyodysenteriae [2]; 30, 40 or 60 ppm feed) of the same compound?
**A.** failed to do so, even at 60 ppm

**Q.** And the “Mean (log10) viable treponemes per gram caecum & contents” value (T. hyodysenteriae [2]; 30 ppm feed)?
**A.** 3.86 log10 per gram

**Q.** What about the “Viable treponemes per gram caecum & contents” value (T. hyodysenteriae [2]; 30 ppm feed) of the same compound?
**A.** negative and 6.0 × 10^6 per gram and 5.4 × 10^5 per gram

**Q.** What about the “Mean (log10) viable treponemes per gram caecum & contents” value (T. hyodysenteriae [2]; 40 ppm feed) of the same compound?
**A.** 6.03 log10 per gram

**Q.** And the “Viable treponemes per gram caecum & contents” value (T. hyodysenteriae [2]; 40 ppm feed)?
**A.** 6.0 × 10^6 per gram and 1.8 × 10^6 per gram and 1.6 × 10^5 per gram and 4.3 × 10^5 per gram

**Q.** And the “Mean (log10) viable treponemes per gram caecum & contents” value (T. hyodysenteriae [2]; 60 ppm feed)?
**A.** 5.52 log10 per gram

**Q.** What about the “Viable treponemes per gram caecum & contents” value (T. hyodysenteriae [2]; 60 ppm feed) of the same compound?
**A.** 1.3 × 10^7 per gram and 2.0 × 10^4 per gram and 1.0 × 10^6 per gram and 1.0 × 10^4 per gram and 1.5 × 10^6 per gram

**Q.** For `CC[C@@H](C(=O)[C@@H](C)[C@@H](O)[C@H](C)CCc1ccc(C)c(O)c1C(=O)O)[C@H]1O[C@](CC)([C@H]2CC[C@](O)(CC)[C@H](C)O2)C[C@@H]1C` [Lasalocid, lasalocid], which “Mean (log10) viable treponemes per gram caecal contents” value (T. hyodysenteriae [3]; 20 ppm feed) is on record?
**A.** 7.35 log10 per gram

**Q.** What about the “Viable treponemes per gram caecal contents” value (T. hyodysenteriae [3]; 20 ppm feed) of the same compound?
**A.** 3.2 × 10^8 per gram and 1.1 × 10^4 per gram and 2.9 × 10^7 per gram and 1.7 × 10^8 per gram

**Q.** And the “Mean (log10) count of viable treponemes in caecal contents” value (shortened to “Mean (log10) count of viable treponemes”) (T. hyodysenteriae [3]; 20 ppm feed)?
**A.** 7.35 cfu/g caecum

**Q.** What about the “Mean (log10) viable treponemes per gram caecal contents” value (T. hyodysenteriae [3]; 40 ppm feed) of the same compound?
**A.** 7.45 log10 per gram

**Q.** What about the “Viable treponemes per gram caecal contents” value (T. hyodysenteriae [3]; 40 ppm feed) of the same compound?
**A.** 3.0 × 10^ 6 per gram and 1.4 × 10^8 per gram and 2.1 × 10^8 per gram and 1.7 × 10^7 per gram and 1.2 × 10^7 per gram

**Q.** And the “Mean (log10) count of viable treponemes” value (T. hyodysenteriae [3]; 40 ppm feed)?
**A.** 7.45 cfu/g caecum

**Q.** What about the “Mean (log10) viable treponemes per gram caecal contents” value (T. hyodysenteriae [3]; 80 ppm feed) of the same compound?
**A.** 3.81 log10 per gram

**Q.** And the “Viable treponemes per gram caecal contents” value (T. hyodysenteriae [3]; 80 ppm feed)?
**A.** 4.0 × 10^4 per gram and 0 per gram and 1.0 × 10^6 per gram and 1.3 × 10^5 per gram and 2.3 × 10^3 per gram

**Q.** What about the “Mean (log10) count of viable treponemes” value (T. hyodysenteriae [3]; 80 ppm feed) of the same compound?
**A.** 3.81 cfu/g caecum

**Q.** How did the “Animals yielding high populations of viable treponema” value (T. hyodysenteriae [4]; 50 ppm feed) turn out when `CC[C@@]1([C@@H]2O[C@@H]([C@H]3O[C@@](O)(CO)[C@H](C)C[C@@H]3C)C[C@@H]2C)CC[C@H]([C@]2(C)CC[C@]3(C[C@H](O)[C@@H](C)[C@@H]([C@@H](C)[C@@H](OC)[C@H](C)C(=O)O)O3)O2)O1` [Monensin, monensin] was run?
**A.** four out of five

**Q.** What about the Suppression of infection (T. hyodysenteriae [4]; 50 ppm feed) of the same compound?
**A.** ineffective

**Q.** And the “Mean (log10) viable treponemes per gram caecum & contents” value (T. hyodysenteriae [4]; 50 ppm feed)?
**A.** 5.2 log10 per gram

**Q.** What about the “Viable treponemes per gram caecum & contents” value (T. hyodysenteriae [4]; 50 ppm feed) of the same compound?
**A.** 1.74 × 10^8 per gram and 2.90 × 10^7 per gram and 1.0 × 10^5 per gram and negative and 2.0 × 10^5 per gram

**Q.** What about the “Populations of viable treponema (range)” value (T. hyodysenteriae [4]; 50 ppm feed, four of five animals) of the same compound?
**A.** 1.0×10^5 -1.7×10^8 cfu/g

**Q.** And the “Group mean (log10) viable treponema” value (T. hyodysenteriae [4]; 50 ppm feed, log10)?
**A.** 5.2 cfu/g caecum

**Q.** What about the Suppression of infection (T. hyodysenteriae [4]; 100 ppm feed) of the same compound?
**A.** suppressed the infection

**Q.** And the “Mean (log10) viable treponemes per gram caecum & contents” value (T. hyodysenteriae [4]; 100 ppm feed)?
**A.** 0 log10 per gram

**Q.** What about the “Viable treponemes per gram caecum & contents” value (T. hyodysenteriae [4]; 100 ppm feed, limit of detection <1.0 × 10^2) of the same compound?
**A.** negative

**Q.** How did the MIC (T. hyodysenteriae [1]; isolate B78, read-out: MIC) turn out when `Cc1ncc([N+](=O)[O-])n1C` [Dimetridazole, dimetridazole] was run?
**A.** 3 µg/mL

**Q.** What about the MIC (T. hyodysenteriae [1]; isolate S82/6, read-out: MIC) of the same compound?
**A.** 30 µg/mL

**Q.** And the MIC (T. hyodysenteriae [1]; isolate S82/7, read-out: MIC)?
**A.** 30 µg/mL

**Q.** What about the MIC (T. hyodysenteriae [1]; isolate S83/1, read-out: MIC) of the same compound?
**A.** 30 µg/mL

**Q.** What about the MIC (T. hyodysenteriae [1]; isolate S83/2, read-out: MIC) of the same compound?
**A.** 3 µg/mL

**Q.** What about the MIC (T. hyodysenteriae [1]; isolate S83/5, read-out: MIC) of the same compound?
**A.** 3 µg/mL

**Q.** And the MIC (T. hyodysenteriae [1]; isolate S85/1, read-out: MIC)?
**A.** 30 µg/mL

**Q.** What about the MIC (T. hyodysenteriae [1]; isolate S85/2, read-out: MIC) of the same compound?
**A.** 10 µg/mL

**Q.** And the MIC (T. hyodysenteriae [1]; isolate S85/3, read-out: MIC)?
**A.** 10 µg/mL

**Q.** What about the MIC (T. hyodysenteriae [1]; isolate S85/8, read-out: MIC) of the same compound?
**A.** 3 µg/mL

**Q.** What about the MIC (T. hyodysenteriae [1]; isolate S85/9, read-out: MIC) of the same compound?
**A.** 5 µg/mL

**Q.** What about the MIC (T. hyodysenteriae [1]; isolate S86/1, read-out: MIC) of the same compound?
**A.** < 0.5 µg/mL

**Q.** What about the MIC (T. hyodysenteriae [1]; isolate S86/2, read-out: MIC) of the same compound?
**A.** 10 µg/mL

**Q.** What about the MIC (T. hyodysenteriae [1]; mean of 13 strains (table), read-out: Mean MIC) of the same compound?
**A.** 12.9 µg/mL
